The values below are quoted from earlier work in patent US8617624B2, “Compositions, systems and methods for the diagnosis, prevention and treatment of disorders associated with azetidine-2-carboxylic acid” (priority 2006, dated 2013).

One data set concerns pregnant mice. The conditions noted are these: fed to pregnant mice.
A further data set has as its system hamsters. The conditions noted are these: exposure during pregnancy in hamsters.

With `O=C(O)[C@@H]1CCCN1` [proline], the “increase in plasma proline concentration” value (1 mmol proline/kg lean body mass) is on record as “approximately 13 fold”. Moreover, under “1 mmol proline/kg lean body mass with about 25 g of glucose”, the “plasma proline increase when glucose also ingested” value was “decreased by half”. Further, the absorption of proline result (ingestion) is listed as “readily absorbed”.
Regarding `O=C(O)C1CCN1` (stereo not drawn) [Aze, Azetidine-2-carboxylic acid], the teratogenic effect entry with pregnant mice is “predisposes to cleft palate”; with hamsters, “fetal weight abnormalities, tissue hemorrhages, cleft palate, retarded ossifications, and shortened bones”. Also, the “effect on wound healing” value with pigs is “delayed wound healing”.
